The target in data set [1] is T1, Rat brain constitutive nitric oxide synthase (rnNOS) (Rattus norvegicus, UniProt P29476).
T1 construct: prepared from an extract of rat cerebellum and partially purified by DEAE-Sepharose chromatography; from tissue; host or cells: rat cerebellum
The data set is described as follows: Citrulline assay for nitric oxide synthase (cNOS). The class given is biochemical. The protocol:
Nitric oxide synthase activity was measured by monitoring the conversion of [3H]-arginine to [3H]-citrulline. Mouse inducible nitric oxide synthase (miNOS) was prepared from an extract of LPS-treated RAW 264.7 cells and partially purified by DEAE-Sepharose chromatography. Rat brain constitutive nitric oxide synthase (rnNOS) was prepared from an extract of rat cerebellum and partially purified by DEAE-Sepharose chromatography. Enzyme and inhibitors were incubated at 37° C. for 15 minutes in a reaction volume of […] with the following components added to start the reaction: 50 mM Tris (pH 7.6), 1 mg/ml bovine serum albumin, 1 mM DTT, 2 mM CaCl2, 10 mM FAD, 10 mM tetrahydrobiopterin, […] L-arginine containing L-[2,3-3H]-arginine at 300 cpm/pmole and 1 mM NADPH. For constitutive NOS, 50 nM calmodulin was also added. The reaction was terminated by addition of cold stop buffer containing 10 mM EGTA, 100 mM HEPES, pH 5.5 and 1 mM citrulline. [3H]-Citrulline was separated by chromatography on Dowex 50W X-8 cation exchange resin and radioactivity determined with a liquid scintillation counter.

The subject of data set [2] is intracellular iNOS in LPS-induced RAW 264.7 cells. The data set is described as follows: Raw cell nitrite assay. It counts as cell-based. The note with it: Mus musculus, RAW264.7, 1 h, read-out: Raw Cell IC50. Here is the method:
RAW 264.7 cells are plated to confluency on a 96-well tissue culture plate grown overnight (17h) in the presence of LPS to induce NOS. […] The media was removed from each well and the cells are washed twice with Krebs-Ringers-Hepes (25 mM, pH 7.4) with 2 mg/ml glucose. The cells are then placed on ice and incubated with […] of buffer containing L-arginine (30 mM) +/− inhibitors for 1 h. The assay is initiated by warming the plate to 37° C. in a water bath for 1 h. […] To terminate the cellular assay, the plate of cells is placed on ice and the nitrite-containing buffer removed and analyzed for nitrite using a previously published fluorescent determination for nitrite. […] All values are the average of triplicate wells and are compared to a background-subtracted induced set of cells (100% value).

For data set [3], the target named is T2, Mouse inducible nitric oxide synthase (miNOS) (Mus musculus, UniProt P29477).
T2 construct: prepared from an extract of LPS-treated RAW 264.7 cells and partially purified by DEAE-Sepharose chromatography; endogenous in cells; host or cells: LPS-treated RAW 264.7 cells (mouse macrophage line)
T2 sequence (P29477 whole entry): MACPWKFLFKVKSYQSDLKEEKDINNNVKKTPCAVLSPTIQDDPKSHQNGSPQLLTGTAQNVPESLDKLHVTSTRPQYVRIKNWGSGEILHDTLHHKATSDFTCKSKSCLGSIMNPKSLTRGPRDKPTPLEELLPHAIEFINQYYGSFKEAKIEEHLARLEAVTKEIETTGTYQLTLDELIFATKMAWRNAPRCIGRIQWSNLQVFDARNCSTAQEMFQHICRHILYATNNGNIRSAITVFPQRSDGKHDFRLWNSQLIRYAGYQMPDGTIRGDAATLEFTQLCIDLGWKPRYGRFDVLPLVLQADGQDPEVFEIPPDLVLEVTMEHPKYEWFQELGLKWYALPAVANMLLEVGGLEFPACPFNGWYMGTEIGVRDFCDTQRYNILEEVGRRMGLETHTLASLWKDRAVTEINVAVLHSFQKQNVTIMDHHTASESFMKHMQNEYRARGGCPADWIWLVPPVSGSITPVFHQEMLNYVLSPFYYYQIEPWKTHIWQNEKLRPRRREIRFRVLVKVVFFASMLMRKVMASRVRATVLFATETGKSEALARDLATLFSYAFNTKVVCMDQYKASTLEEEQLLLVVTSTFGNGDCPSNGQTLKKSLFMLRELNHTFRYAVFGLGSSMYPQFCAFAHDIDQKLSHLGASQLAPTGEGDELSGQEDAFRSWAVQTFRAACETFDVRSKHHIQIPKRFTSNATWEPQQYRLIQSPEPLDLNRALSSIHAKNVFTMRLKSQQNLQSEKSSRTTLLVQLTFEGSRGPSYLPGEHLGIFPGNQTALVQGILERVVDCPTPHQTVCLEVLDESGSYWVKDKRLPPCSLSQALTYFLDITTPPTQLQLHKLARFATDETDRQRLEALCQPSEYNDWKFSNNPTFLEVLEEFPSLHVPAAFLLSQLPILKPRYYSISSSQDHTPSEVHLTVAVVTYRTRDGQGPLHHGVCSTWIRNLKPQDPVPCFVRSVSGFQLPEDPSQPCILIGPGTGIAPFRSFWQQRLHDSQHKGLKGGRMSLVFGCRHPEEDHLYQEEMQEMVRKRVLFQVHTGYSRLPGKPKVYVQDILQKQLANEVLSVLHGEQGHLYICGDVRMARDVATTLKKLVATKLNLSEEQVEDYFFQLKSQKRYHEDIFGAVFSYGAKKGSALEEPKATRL
The data set is described as follows: biochemical. To be noted: for pIC50: conversion of [3H]-arginine to [3H]-citrulline, 37° C., 15 minutes, read-out: iNOS.
Method: Nitric oxide synthase activity was measured by monitoring the conversion of [3H]-arginine to [3H]-citrulline. Mouse inducible nitric oxide synthase (miNOS) was prepared from an extract of LPS-treated RAW 264.7 cells and partially purified by DEAE-Sepharose chromatography. […] Enzyme and inhibitors were incubated at 37° C. for 15 minutes in a reaction volume of 100 mL with the following components added to start the reaction: 50 mM Tris (pH 7.6), 1 mg/ml bovine serum albumin, 1 mM DTT, 2 mM CaCl2, 10 mM FAD, 10 mM tetrahydrobiopterin, 30 mM L-arginine containing L-[2,3-3H]-arginine at 300 cpm/pmole and 1 mM NADPH. […] The reaction was terminated by addition of cold stop buffer containing 10 mM EGTA, 100 mM HEPES, pH 5.5 and 1 mM citrulline. [3H]-Citrulline was separated by chromatography on Dowex 50W X-8 cation exchange resin and radioactivity determined with a liquid scintillation counter.

Data set [4] relates to LPS-induced increase in plasma nitrites. The data set is described as follows: In vivo assay: endotoxin (LPS)-induced plasma nitrites in rat. To be noted: Low Endotoxin in Rat Model. The protocol:
Rats were treated with an intraperitoneal injection of 10 mg/kg of endotoxin (LPS) with or without oral administration of the nitric oxice synthase inhibitors. Plasma nitrites were measured 5 hours post-treatment.
IP is the abbreviation for 2-iminopiperidine. LPS is the abbreviation for endotoxin

Broadly, the ED50 is the dose that gives a 50% effect, or the effect in half of the subjects. Higher therefore signals weaker potency. Usually melting point stands for the temperature of the solid-liquid transition.

Each structure is given as a SMILES string. pIC50: −log10 of the molar value.

T1 sequence (P29476 whole entry): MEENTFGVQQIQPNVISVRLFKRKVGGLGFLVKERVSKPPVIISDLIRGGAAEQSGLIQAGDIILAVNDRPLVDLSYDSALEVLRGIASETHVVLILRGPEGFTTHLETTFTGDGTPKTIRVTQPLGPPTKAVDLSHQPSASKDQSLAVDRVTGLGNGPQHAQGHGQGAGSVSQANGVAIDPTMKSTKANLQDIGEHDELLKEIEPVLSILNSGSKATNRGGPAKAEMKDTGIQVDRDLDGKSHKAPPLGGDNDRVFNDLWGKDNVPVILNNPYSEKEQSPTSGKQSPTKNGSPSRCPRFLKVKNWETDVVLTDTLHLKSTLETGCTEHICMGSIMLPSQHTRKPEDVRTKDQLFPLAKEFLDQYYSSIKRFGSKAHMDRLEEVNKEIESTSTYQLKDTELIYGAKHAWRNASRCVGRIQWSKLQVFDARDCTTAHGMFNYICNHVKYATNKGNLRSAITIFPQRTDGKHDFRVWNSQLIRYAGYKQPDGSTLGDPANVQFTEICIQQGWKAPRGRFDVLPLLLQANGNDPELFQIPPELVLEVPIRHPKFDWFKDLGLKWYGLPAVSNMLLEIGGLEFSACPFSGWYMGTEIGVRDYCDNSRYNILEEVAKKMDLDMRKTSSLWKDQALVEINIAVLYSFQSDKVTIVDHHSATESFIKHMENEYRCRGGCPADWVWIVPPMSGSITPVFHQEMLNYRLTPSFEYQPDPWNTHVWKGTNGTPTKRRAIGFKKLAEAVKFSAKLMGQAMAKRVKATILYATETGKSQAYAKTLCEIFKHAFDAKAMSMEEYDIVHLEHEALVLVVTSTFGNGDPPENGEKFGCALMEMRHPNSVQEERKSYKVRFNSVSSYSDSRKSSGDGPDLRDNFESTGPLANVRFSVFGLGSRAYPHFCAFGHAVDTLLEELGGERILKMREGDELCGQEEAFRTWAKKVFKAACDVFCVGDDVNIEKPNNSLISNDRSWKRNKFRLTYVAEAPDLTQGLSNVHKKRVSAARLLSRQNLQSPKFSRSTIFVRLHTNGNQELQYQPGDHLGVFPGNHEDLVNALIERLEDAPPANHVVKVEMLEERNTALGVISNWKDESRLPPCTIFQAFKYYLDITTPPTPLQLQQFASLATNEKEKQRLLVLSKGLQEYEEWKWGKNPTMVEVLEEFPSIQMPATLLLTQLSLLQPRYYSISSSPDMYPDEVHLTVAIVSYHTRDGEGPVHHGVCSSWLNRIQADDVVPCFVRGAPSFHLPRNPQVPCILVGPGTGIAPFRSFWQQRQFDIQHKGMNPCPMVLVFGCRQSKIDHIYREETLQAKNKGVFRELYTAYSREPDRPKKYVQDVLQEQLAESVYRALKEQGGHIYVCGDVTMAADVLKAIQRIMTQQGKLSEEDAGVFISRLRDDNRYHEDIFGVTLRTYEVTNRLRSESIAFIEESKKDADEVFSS

As to `CCC(CC)CC1CCCCC(=N)N1.Cl` (stereo not shown) [Example 198, 7-(2-ethylbutyl)hexahydro-1H-azepin-2-imine, monohydrochloride], the pIC50 was 3.19 in data set [1], 5.48 in data set [2] and 5.68 in data set [3]. This compound also gave an ED50 in data set [4] (determined using iv infusion) of 5 mg/kg.
Regarding `CCCC1CCCCC(=N)N1.Cl` (stereo not shown) [Example 114, hexahydro-7-propyl-1H-azepin-2-imine, monohydrochloride], the pIC50 in data set [1] is 5.11; in data set [2], 6.26. In data set [4] (po, administered p.o.), the ED50 stood at 3.4 mg/kg.
In the same order, the values of `C=CCC1CCCCC(=N)N1.Cl` (stereo not shown) [Example 108, hexahydro-7-(2-propenyl)-1H-azepin-2-imine, monohydrochloride] are 4.72, 6.24 and 3.7 mg/kg.
With `Cl.N=C1CCCCC(C2CCCCC2)N1` (stereo not shown) [Example 96, 7-cyclohexyl-hexahydro-1H-azepin-2-imine, monohydrochloride], the pIC50 in data set [1] was 2.85; in data set [3] it was 5.03. The same compound came in with an ED50 in data set [4] (po, administered p.o.) of 3.8 mg/kg.
In the case of `CCCCC1CCCCC(=N)N1.Cl` (stereo not shown) [Example 188, 7-butylhexahydro-1H-azepin-2-imine, monohydrochloride], the figures for the pIC50 in data set [1], in data set [2] and in data set [3] were 3.97, 6.19 and 6.26, respectively. The same compound gave an ED50 in data set [4] (po, administered p.o.) of 3.7 mg/kg.
Turning to `Cl.N=C1CCC2=C(CCCC2)N1` [Example 3, 3,4,5,6,7,8-hexahydro-2[1H]-quinolineimine hydroiodide], the melting point was 150 to 155 °C. For the same compound, in data set [3] (10 μM compound, printed as % only (inhibition not stated)), the “iNOS, % @ 10 μM” value is 43% * 10 μM.
`CC1CCCC(=N)N1.Cl` (stereo not shown) [Example 8, 2-Imino-6-methylpiperidine hydrochloride]: the melting point is 160 to 162 °C. For the same compound, the pIC50 in data set [1] was 6.00. The pIC50 in data set [3] was 6.80.

The values are drawn from US6448286B1, “Imino pyrrolidine derivatives useful as nitric oxide synthase inhibitors” (G.D. Searle & Co., priority 1993, dated 2002).
